Results on two molecules are retold here after patent US20070021360A1, “Compositions, formulations and kit with anti-sense oligonucleotide and anti-inflammatory steroid and/or obiquinone for treatment of respiratory and lung disesase” (priority 2001, published 2007).

The test system of data set [1] is allergic rabbits. As to the kind of experiment: Allergen-induced airway obstruction in allergic rabbits. In kind it is in vivo, rabbit. To be noted: compared with mismatched control; from area under the plotted curve; p<0.05.
Data set [2] has as its system allergic rabbits. As to the kind of experiment: Allergen-induced bronchial hyperresponsiveness (PC50 Histamine) in allergic rabbits. In kind it is in vivo, rabbit. The following applies: compared to mismatched control; from PC50 Histamine value; p<0.05. On the procedure:
Each allergic rabbit was administered histamine by aerosol to determine their baseline hyperresponsiveness. Aerosols of either saline or hitamine were generated using a DeVilbiss nebulizer (DeVilbiss, Somerset, Pa.) for 30 seconds and then for 2 minutes at each dose employed. The ultrasonic nebulizer produced aerosol droplets of which 80% were <5 micron in diameter. The histamine aerosol was administered in increasing concentrations (0.156 to 80 mg/ml) and measurements of pulmonary function were made after each dose. The […] was then determined by calculating the concentration of histamine (mg/ml) required to reduce the Cdyn 50% from baseline (PC50 Histamine)

Data set [3] concerns the target T1, adenosine A1 receptor (Oryctolagus cuniculus, UniProt P34970).
T1 construct: Airway smooth muscle tissue was dissected from each rabbit and a membrane fraction prepared; from tissue; host or cells: rabbit airway smooth muscle, crude plasma membranes
T1 sequence (P34970 1-328): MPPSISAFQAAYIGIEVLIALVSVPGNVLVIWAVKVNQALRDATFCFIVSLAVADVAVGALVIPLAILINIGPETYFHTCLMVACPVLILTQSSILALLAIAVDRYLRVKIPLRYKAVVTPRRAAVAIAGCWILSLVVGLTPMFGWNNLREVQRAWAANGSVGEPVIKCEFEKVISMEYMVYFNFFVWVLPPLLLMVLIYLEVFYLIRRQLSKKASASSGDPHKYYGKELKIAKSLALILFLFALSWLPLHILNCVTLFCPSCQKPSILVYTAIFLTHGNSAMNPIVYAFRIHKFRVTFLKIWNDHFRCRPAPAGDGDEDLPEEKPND
The following applies: mismatch controls; Nyce & Metzger (1997); cited from earlier work.

Data set [4] has as its system adenosine A1 receptor. As to the kind of experiment: Adenosine-induced bronchoconstriction (PC50 Adenosine) in allergic rabbits. Format: in vivo. The following applies: allergic rabbits. On the procedure: A fortuitous hoology between the rabbit and human DNA sequences within the adenosine A1 gene overlapping the initiation codon permitted the use of the phosphorothioate anti-sense oligonucleotides initially designed for use against the human adenosine A1 receptor in a rabbit model. Neonatal New Zealand white Pasteurella-free rabbits were immunized intraperitoneally within 24 hours of birth with 312 antigen units/ml house dust mite (D. farinae) extract (Berkeley Biologicals, Berkeley, Calif.), mixed with 10% kaolin. Immunizations were repeated weekly for the first month and then biweekly for the next 2 months. At 3-4 months of age, eight sensitized rabbits were anesthetized and relaxed with a mixture of ketamine hydrochloride (44 mg/kg) and acepromazine maleate (0.4 mg/kg) administered intramuscularly. The rabbits were then laid supine in a comfortable position on a small molded, padded animal board and intubated with a 4.0-mm intratracheal tube (Mallinkrodt, Inc., Glens Falls, N.Y.). A polyethylene catheter of external diameter 2.4 mm with an attached latex balloon was passed into the esophagus and maintained at the same distance (approximately 16 cm) from the mouth throughout the experiments. The intratracheal tube was attached to a heated Fleisch pneumotachograph (size 00; DOM Medical, Richmond, Va.), and flow was measured using a Validyne differential pressure transducer (Model DP-45161927; Validyne Engineering Corp., Northridge, Calif.) driven by a Gould carrier amplifier (Model 11-4113; Gould Electronic, Cleveland, Ohio). The esophageal balloon was attached to one side of the differential pressure transducer, and the outflow of the intratracheal tube was connected to the opposite side of the pressure transducer to allow recording of transpulmonary pressure. Flow was integrated to give a continuous tidal volume, and measurements of total lung resistance (RL) and dynamic compliance (Cdyn) were calculated at isovolumetric and flow zero points, respectively, using an automated respiratory analyzer (Model 6; Buxco, Sharon, Conn.). Animals were randomized and on Day 1 pretreatment values for PC50 were obtained for aerosolized adenosine. Anti-sense (HAdA1AS) or mismatched control (HAdA1MM) oligonucleotides were dissolved in sterile physiological saline at a concentration of 5000 μg (5 mg) per 1.0 ml. […] Aerosols of either saline, adenosine, or anti-sense or mismatch oligonucleotides were generated by an ultrasonic nebulizer (DeVilbiss, Somerset, Pa.), producing aerosol droplets 80% of which were smaller than 5:m in diameter. In the first arm of the experiment, four randomly selected allergic rabbits were administered anti-sense oligonucleotide and four the mismatched control oligonucleotide. On the morning of the third day, PC50 values (the concentration of aerosolized adenosine in mg/ml required to reduce the dynamic compliance of the bronchial airway 50% from the baseline value) were obtained and compared to PC50 values obtained for these animals prior to exposure to oligonucleotide. Following a 1 week interval, animals were crossed over, with those previously administered mismatch control oligonucleotide now administered anti-sense oligonucleotide, and those previously treated with anti-sense oligonucleotide now administered mismatch control oligonucleotide. Treatment methods and measurements were identical to those employed in the first arm of the experiment. […] For the purpose of calculation, PC50 values for these animals were set at 20 mg/ml. The values given therefore represent a minimum figure for anti-sense effectiveness. Actual effectiveness was higher.
Aerosols of either adenosine (0-20 mglnml), or anti-sense or one of two mismatch oligonucleotides (5 mg/ml) were separately prepared with an ultrasonic nebulizer (Model 646, DeVilbiss, Somerset, Pa.), which produced aerosol droplets, 80% of which were smaller than 5:m in diameter. […]

Another data set relates to G6PDH. As to the kind of experiment: Enzymatic assay of purified G6PDH. To be noted: in vitro; compared to control.
For data set [5], the system named is HT-29 SF cells. As to the kind of experiment: DHEA effect on cell growth (Coulter counter).
Protocol: Cell cultures, HT-29 SF cells, which represent a subline of HY-29 cells (ATCC, Rockville, Md.) and are adapted for growth in completely defined serum-free PC-1 medium (Ventrex, Portland, Me.), were obtained. Stock cultures were maintained in this medium at 37° in a humidified atmosphere containing 5% CO2.
Data set [6] concerns HT-29 SF cells. As to the kind of experiment: DHEA effect on cell cycle distribution (flow cytometry). The following applies: 25, 50, or 200 μM DHEA; 24, 48, 72 hours. In kind it is cell-based, human. How it is done: Cells were plated at 10^5/60-rm dish in duplicate. […] Cultures were trypsinized following […] and fixed and stained using a modification of a procedure of Bauer et al., Cancer Res., 46, 3173-3178 (1986). Briefly, cells were collected by centrifugation and resuspended in cold phosphate-buffered saline. Cells were fixed in 70% ethanol, washed, and resuspended in phosphate-buffered saline.
After 24, 48, and 72 hours, cells were harvested, fixed in ethanol, and stained with propidium iodide, and the DNA content/cell was determined by flow cytometric analysis. The percentage of cells in G1, S, and G2M phases was calculated using the Cellfit cell cycle analysis program. S phase is marked by a quadrangle for clarity. Representative histograms from duplicate determinations are shown. The experiment was repeated three times.
A transient increase in G2M phase cells was apparent after 48 hours.

Protocol for G6PDH: All experiments were repeated 4 times.
A second group was added different concentrations of a CoQ of long side chain (in triplicate), and a third group received a CoQ of short side chain (in triplicate), both at various doses in the μM range.
The reaction was started by addition of the enzyme, and the increase in absorbance at 340 nm was measured for 5 minutes. Each data point was conducted in triplicate, and the full experiment was repeated 4 times.

On to “5′-GTAGGTGGCGGGCAAGGCGGG-3′ (antisense GTAGGTGGCGGGCAAGGCGGG; phosphorothioate, further chemistry not given here) [Oligo A1MM2, mismatch control for anti-sense oligo I, reference compound]”, for which the “inhibition of allergen-induced airway obstruction” value in the data set on allergic rabbits [1] is reported as “complete lack of effect”. Also, the “inhibition of allergen-induced BHR” value with allergic rabbits [2] is given as “complete lack of effect”. In addition, in the data set with adenosine A1 receptor [3], the “effect upon any of the targeted receptors (A1, A2 or B2)” value is on record as “absolutely no effect”. Further, the “PC50 Adenosine” value is 2.51 ± 0.46 mg Adenosine in the data set with adenosine A1 receptor [4] (Total Dose 0.2 mg), 3.13 ± 0.71 mg Adenosine in the data set with adenosine A1 receptor [4] (Total Dose 2.0 mg) and 3.25 ± 0.34 mg Adenosine in the data set with adenosine A1 receptor [4] (Total Dose 20 mg). In addition, the “effect on PC50 Adenosine value” in the data set on adenosine A1 receptor [4] (cross-over experiment, 20 mg total aerosolized oligo) was “no effect”.
Take `C[C@]12CC[C@H](O)CC1=CC[C@@H]1[C@@H]2CC[C@]2(C)C(=O)CC[C@@H]12` [DHEA, 3β-hydroxyandrost-5-en-17-one]: the “inhibition of activity of purified G6PDH” value in the data set on G6PDH was found to be 72%. Also, the inhibition of growth result with HT-29 SF cells [5] (0-200 μM DHEA, 0-72 hours) was “time- and dose-dependent inhibition of growth”. Besides, the “exposure time after which cell number was reduced compared to controls” value in the data set with HT-29 SF cells [5] (12.5 μM DHEA) came to 72 h; in the data set with HT-29 SF cells [5] (200 μM DHEA), 24 h; in the data set on HT-29 SF cells [5] (25 or 50 μM DHEA), 48 h. Besides, the “effect on cell cycle distribution” value with HT-29 SF cells [6] is reported as “G1 block”.
